Data from patent US20050165047A1, “Crystalline fumarate salts of 1-azabicyclo[2.2.2]oct substituted furo[2,3-c]pyridinyl carboxamide and compositions and preparations thereof” (Pfizer Inc, priority 2002, published 2005).

Assay: Moisture sorption by DMSG on a controlled atmosphere microbalance
Format: physicochemical
Conditions: 25° C.
Procedure: The sorption of water by the solid lattice at a given relative humidity (RH) was measured by DMSG on a controlled atmosphere microbalance. Scans were carried out at 25° C. from 36% to 0% RH then ramped to 90% RH, and back down to 0% RH with a step size of 3% RH. A sample size of 8 to 14 mg was used. At each step, the balance was considered equilibrated when the mass change was less than 0.01 mg for five consecutive scans. There were 120 seconds between each scan.
Table 3 provides the moisture sorption data at 25° C. for Crystal Forms Ia and Ib of N-[1-azabicyclo[2.2.2]oct-3-yl]furo[2,3-c]pyridine-5-carboxamide.

Question: Which results are given for `O=C(N[C@H]1CN2CCC1CC2)c1cc2ccoc2cn1` [Crystal Form Ia, N-[(3R)-1-azabicyclo[2.2.2]oct-3-yl]furo[2,3-c]pyridine-5-carboxamide]?
Answer: % dMass (RH 0%, 0-90% RH): 0.006227%; % dMass (RH 0%, 36-0% RH): 0.008896%; % dMass (RH 0.1%, 36-0% RH): 0.01245%; % dMass (RH 0.36%, 36-0% RH): 0.01156%; % dMass (RH 1.3%, 0-90% RH): 0.01512%; % dMass (RH 1.6%, 36-0% RH): 0.02224%; % dMass (RH 4.3%, 0-90% RH): 0.0258%; % dMass (RH 4.74%, 36-0% RH): 0.0338%; % dMass (RH 7.1%, 0-90% RH): 0.03736%; % dMass (RH 7.98%, 36-0% RH): 0.0427%; % dMass (RH 10.1%, 0-90% RH): 0.04448%; % dMass (RH 10.8%, 36-0% RH): 0.04893%; % dMass (RH 13.14%, 0-90% RH): 0.05249%; % dMass (RH 13.96%, 36-0% RH): 0.05515%; % dMass (RH 16.18%, 0-90% RH): 0.05782%; % dMass (RH 17.1%, 36-0% RH): 0.06227%; % dMass (RH 19.28%, 0-90% RH): 0.06227%; % dMass (RH 19.94%, 36-0% RH): 0.07028%; % dMass (RH 22.56%, 0-90% RH): 0.07295%; % dMass (RH 23.18%, 36-0% RH): 0.07739%; % dMass (RH 25.72%, 0-90% RH): 0.07828%; % dMass (RH 28.68%, 0-90% RH): 0.08362%; % dMass (RH 31.96%, 0-90% RH): 0.09341%; % dMass (RH 35.18%, 0-90% RH): 0.1005%; % dMass (RH 38.16%, 0-90% RH): 0.1076%; % dMass (RH 41.24%, 0-90% RH): 0.1139%; % dMass (RH 44.36%, 0-90% RH): 0.1165%; % dMass (RH 47.56%, 0-90% RH): 0.1237%; % dMass (RH 50.7%, 0-90% RH): 0.1334%; % dMass (RH 53.86%, 0-90% RH): 0.1423%; % dMass (RH 56.98%, 0-90% RH): 0.153%; % dMass (RH 60.24%, 0-90% RH): 0.1646%; % dMass (RH 63.9%, 0-90% RH): 0.1841%; % dMass (RH 66.22%, 90-0% RH): 0.2046%; % dMass (RH 66.66%, 0-90% RH): 0.2028%; % dMass (RH 69.18%, 90-0% RH): 0.234%; % dMass (RH 69.48%, 0-90% RH): 0.2251%; % dMass (RH 72.34%, 90-0% RH): 0.3194%; % dMass (RH 72.76%, 0-90% RH): 0.2562%; % dMass (RH 75.26%, 90-0% RH): 0.3629%; % dMass (RH 75.68%, 0-90% RH): 0.2936%; % dMass (RH 77.96%, 90-0% RH): 0.4074%; % dMass (RH 78.42%, 0-90% RH): 0.3371%; % dMass (RH 80.84%, 90-0% RH): 0.4706%; % dMass (RH 81.9%, 0-90% RH): 0.4163%; % dMass (RH 83.48%, 90-0% RH): 0.5569%; % dMass (RH 85.3%, 0-90% RH): 0.6218%; % dMass (RH 85.94%, 90-0% RH): 0.693%; % dMass (RH 88.38%, 0-90% RH): 0.9643%; % dMass (RH 88.42%, 90-0% RH): 0.9723%; hygroscopicity compared with Crystal Form Ib (above 74% relative humidity (RH)): less hygroscopic

Question: What does the source list for `O=C(N[C@H]1CN2CCC1CC2)c1cc2ccoc2cn1` [Crystal Form Ib, N-[(3R)-1-azabicyclo[2.2.2]oct-3-yl]furo[2,3-c]pyridine-5-carboxamide]?
Answer: % dMass (RH 0%, 36-0% RH): 0.1164%; % dMass (RH 0.24%, 36-0% RH): 0.1225%; % dMass (RH 2.62%, 0-90% RH): 0.1479%; % dMass (RH 3.16%, 36-0% RH): 0.1628%; % dMass (RH 5.84%, 0-90% RH): 0.1768%; % dMass (RH 6.36%, 36-0% RH): 0.1899%; % dMass (RH 8.98%, 0-90% RH): 0.2048%; % dMass (RH 9.74%, 36-0% RH): 0.2197%; % dMass (RH 12.2%, 0-90% RH): 0.2293%; % dMass (RH 12.78%, 36-0% RH): 0.2451%; % dMass (RH 15.34%, 0-90% RH): 0.2547%; % dMass (RH 15.78%, 36-0% RH): 0.2678%; % dMass (RH 18.46%, 0-90% RH): 0.281%; % dMass (RH 18.8%, 36-0% RH): 0.2932%; % dMass (RH 21.42%, 0-90% RH): 0.3037%; % dMass (RH 21.88%, 36-0% RH): 0.3195%; % dMass (RH 24.66%, 0-90% RH): 0.3335%; % dMass (RH 25.1%, 36-0% RH): 0.3466%; % dMass (RH 27.74%, 0-90% RH): 0.3606%; % dMass (RH 28.16%, 36-0% RH): 0.3772%; % dMass (RH 30.82%, 0-90% RH): 0.3921%; % dMass (RH 33.92%, 0-90% RH): 0.4245%; % dMass (RH 36.96%, 0-90% RH): 0.4586%; % dMass (RH 39.9%, 0-90% RH): 0.491%; % dMass (RH 43.18%, 0-90% RH): 0.5348%; % dMass (RH 46.14%, 0-90% RH): 0.5768%; % dMass (RH 49.16%, 0-90% RH): 0.6302%; % dMass (RH 52.12%, 0-90% RH): 0.6871%; % dMass (RH 55.1%, 0-90% RH): 0.7501%; % dMass (RH 58.08%, 0-90% RH): 0.8219%; % dMass (RH 61.08%, 0-90% RH): 0.9068%; % dMass (RH 64.04%, 0-90% RH): 1.002%; % dMass (RH 67.02%, 0-90% RH): 1.124%; % dMass (RH 68.62%, 90-0% RH): 26.01%; % dMass (RH 70%, 0-90% RH): 1.281%; % dMass (RH 71.48%, 90-0% RH): 26.27%; % dMass (RH 72.9%, 0-90% RH): 1.505%; % dMass (RH 74.3%, 90-0% RH): 26.58%; % dMass (RH 75.9%, 0-90% RH): 1.925%; % dMass (RH 77.1%, 90-0% RH): 26.92%; % dMass (RH 79.2%, 0-90% RH): 26.93%; % dMass (RH 79.88%, 90-0% RH): 27.36%; % dMass (RH 82%, 0-90% RH): 27.4%; % dMass (RH 82.5%, 90-0% RH): 28%; % dMass (RH 85.04%, 0-90% RH): 28.18%; % dMass (RH 85.12%, 90-0% RH): 30.2%; % dMass (RH 87.82%, 0-90% RH): 30.29%; % dMass (RH 87.9%, 90-0% RH): 32.21%; % dMass (RH 90.7%, 0-90% RH): 38.78%; % dMass (RH 90.7%, 90-0% RH): 38.8%
